Paper PMC6934184, “Selective DNA-PKcs inhibition extends the therapeutic index of localized radiotherapy and chemotherapy” (The Journal of Clinical Investigation, 2019)

Target: T1, SRPK2 (Homo sapiens, UniProt P78362)
T1 construct: purchased Thermo Fisher Scientific (Life Technologies) SelectScreen
Experiment: SelectScreen Z'LYTE
Type: biochemical
Outline: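 Percent values come from Thermo SelectScreen profiling of NU5455, combining activity and binding assays. CSF1R was run in Z'LYTE format at Km app ATP, and CAMK1 in Adapta format with ATP listed at 10.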

T1 sequence (P78362 whole entry): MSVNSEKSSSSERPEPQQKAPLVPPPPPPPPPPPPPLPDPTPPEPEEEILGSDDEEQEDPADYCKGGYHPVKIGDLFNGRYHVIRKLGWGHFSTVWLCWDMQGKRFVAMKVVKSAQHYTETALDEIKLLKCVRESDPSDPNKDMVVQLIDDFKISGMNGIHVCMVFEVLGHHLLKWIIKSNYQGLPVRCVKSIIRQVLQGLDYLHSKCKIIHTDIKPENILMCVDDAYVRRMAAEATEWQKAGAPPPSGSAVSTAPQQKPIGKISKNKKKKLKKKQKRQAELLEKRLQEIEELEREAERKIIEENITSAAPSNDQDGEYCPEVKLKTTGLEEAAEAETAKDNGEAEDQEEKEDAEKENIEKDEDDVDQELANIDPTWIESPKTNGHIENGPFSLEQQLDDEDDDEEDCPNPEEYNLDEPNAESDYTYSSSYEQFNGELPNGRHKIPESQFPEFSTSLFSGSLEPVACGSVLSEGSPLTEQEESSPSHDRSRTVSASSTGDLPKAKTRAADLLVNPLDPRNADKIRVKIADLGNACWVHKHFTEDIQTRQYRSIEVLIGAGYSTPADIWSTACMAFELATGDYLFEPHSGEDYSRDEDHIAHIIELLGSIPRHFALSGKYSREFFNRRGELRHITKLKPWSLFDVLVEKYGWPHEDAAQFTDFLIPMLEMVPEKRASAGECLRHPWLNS

CN(C(=O)CN1CCOCC1)c1ccc2sc3c(-c4cccc5c(=O)cc(N6CC7CCC(C6)O7)oc45)cccc3c2c1 [NU5455]
inhibition at 1 µM: 3.9%
